The record followed here is patent US11020399B2, “Intermediates useful in the synthesis of compounds as modulators of protein kinases” (Rhizen Pharmaceuticals SA, priority 2011, dated 2021).

The target in data set [1] is PI3kδ (Homo sapiens, UniProt O00329). Description: Fluorescent (HTRF) determination of PI3 kinase enzyme activity, PI3Kδ. The settings on record: for inhibition at 0.1 µM / % inhibition (PI3kδ) 100 nM: 100 nM (Examples 60-137); for % inhibition (PI3kδ) 100 nM: 0.1 µM; for inhibition at 0.3 µM: 300 nM (Examples 1-59). Type of data set: biochemical. In a few lines:
(§1)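 Human PI3K isoforms were preincubated with compound for 10 min at room temperature in 10 mM MgCl2, 5 mM DTT, 1.38 μM PIP2, then reacted 30 min after adding 400 μM ATP stock. PIP3 was read by HTRF (665/620 nm). Percent inhibition used blank and enzyme controls; single-point testing was at 1 uM for α/β and 0.3 or 0.1 uM for γ/δ.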
(TR-FRET usually uses a lanthanide donor and a delayed reading to cut background.)

Data set [2] deals with PI3kγ (Homo sapiens, UniProt P48736). Description: Fluorescent (HTRF) determination of PI3 kinase enzyme activity, PI3Kγ. Type of data set: biochemical. To be noted: for inhibition at 0.1 µM / % inhibition (PI3kγ) 100 nM: 100 nM (Examples 60-137); for inhibition at 0.3 µM: 300 nM (Examples 1-59). In a few lines:
as §1

For data set [3], the target named is PI3kβ (Homo sapiens, UniProt P42338). Description: Fluorescent (HTRF) determination of PI3 kinase enzyme activity, PI3Kβ. Type of data set: biochemical. The settings on record: 1 uM. In a few lines:
as §1

In data set [4] the target is PI3kα (Homo sapiens, UniProt P42336). Description: Fluorescent (HTRF) determination of PI3 kinase enzyme activity, PI3Kα. The format is biochemical. To be noted: 1 uM. In a few lines: as §1
Sequence of PI3kα (P42336 whole entry): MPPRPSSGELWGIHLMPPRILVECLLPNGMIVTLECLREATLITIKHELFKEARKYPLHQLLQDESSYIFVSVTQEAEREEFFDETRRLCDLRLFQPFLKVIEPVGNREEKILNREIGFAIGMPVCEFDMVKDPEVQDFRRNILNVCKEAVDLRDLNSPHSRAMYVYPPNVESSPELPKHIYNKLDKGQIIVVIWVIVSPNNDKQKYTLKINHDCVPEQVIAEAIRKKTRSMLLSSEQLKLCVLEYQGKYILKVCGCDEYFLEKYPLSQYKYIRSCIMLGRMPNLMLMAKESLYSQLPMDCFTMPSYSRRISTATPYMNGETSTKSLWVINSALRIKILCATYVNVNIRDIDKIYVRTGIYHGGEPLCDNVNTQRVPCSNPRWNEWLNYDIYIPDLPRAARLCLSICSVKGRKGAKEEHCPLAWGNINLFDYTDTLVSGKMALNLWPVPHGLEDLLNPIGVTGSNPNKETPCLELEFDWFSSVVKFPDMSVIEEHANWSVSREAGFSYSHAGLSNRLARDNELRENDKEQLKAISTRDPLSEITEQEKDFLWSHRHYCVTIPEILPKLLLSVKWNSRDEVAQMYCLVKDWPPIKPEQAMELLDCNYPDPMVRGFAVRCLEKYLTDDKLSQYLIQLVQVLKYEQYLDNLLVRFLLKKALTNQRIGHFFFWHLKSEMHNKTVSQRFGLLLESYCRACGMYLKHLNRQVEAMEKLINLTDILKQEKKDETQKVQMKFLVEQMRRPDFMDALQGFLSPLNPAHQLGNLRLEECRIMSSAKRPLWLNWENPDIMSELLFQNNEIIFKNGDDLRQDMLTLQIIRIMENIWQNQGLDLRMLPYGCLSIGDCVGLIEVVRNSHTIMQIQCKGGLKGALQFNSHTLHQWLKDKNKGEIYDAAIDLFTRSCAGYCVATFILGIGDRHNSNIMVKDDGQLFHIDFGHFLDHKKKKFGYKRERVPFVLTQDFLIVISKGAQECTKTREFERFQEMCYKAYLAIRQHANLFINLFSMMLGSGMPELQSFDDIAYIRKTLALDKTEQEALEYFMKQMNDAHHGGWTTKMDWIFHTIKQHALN
Sequence of PI3kα (P27986 whole entry partner): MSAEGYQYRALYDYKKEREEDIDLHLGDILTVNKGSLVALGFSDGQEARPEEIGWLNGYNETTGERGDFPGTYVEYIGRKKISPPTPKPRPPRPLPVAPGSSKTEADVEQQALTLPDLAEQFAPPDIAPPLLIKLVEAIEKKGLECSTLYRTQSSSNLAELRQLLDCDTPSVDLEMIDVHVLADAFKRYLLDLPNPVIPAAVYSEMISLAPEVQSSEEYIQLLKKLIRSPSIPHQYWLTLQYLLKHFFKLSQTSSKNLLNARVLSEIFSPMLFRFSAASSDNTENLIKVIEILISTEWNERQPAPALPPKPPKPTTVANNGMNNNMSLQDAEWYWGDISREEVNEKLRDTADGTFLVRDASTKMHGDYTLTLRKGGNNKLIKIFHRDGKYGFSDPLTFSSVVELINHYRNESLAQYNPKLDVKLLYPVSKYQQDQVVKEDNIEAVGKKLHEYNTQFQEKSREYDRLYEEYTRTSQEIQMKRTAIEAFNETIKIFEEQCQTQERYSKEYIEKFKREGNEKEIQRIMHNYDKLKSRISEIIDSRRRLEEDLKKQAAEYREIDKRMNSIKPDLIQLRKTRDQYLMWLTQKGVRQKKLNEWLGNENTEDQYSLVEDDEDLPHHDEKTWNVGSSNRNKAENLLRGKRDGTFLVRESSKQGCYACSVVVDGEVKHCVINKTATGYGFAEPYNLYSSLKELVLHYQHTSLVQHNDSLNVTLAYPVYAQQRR

Molecules are shown by their SMILES.

What is called melting point is the temperature, or range, at which the solid turns liquid. One may read the inhibition as the relative decrease from the control value, in per cent. In general, IC50 refers to the midpoint of a concentration-inhibition curve. The low end stands for higher potency, the high end for lower potency.

Sequence of PI3kδ (O00329 whole entry, canonical isoform): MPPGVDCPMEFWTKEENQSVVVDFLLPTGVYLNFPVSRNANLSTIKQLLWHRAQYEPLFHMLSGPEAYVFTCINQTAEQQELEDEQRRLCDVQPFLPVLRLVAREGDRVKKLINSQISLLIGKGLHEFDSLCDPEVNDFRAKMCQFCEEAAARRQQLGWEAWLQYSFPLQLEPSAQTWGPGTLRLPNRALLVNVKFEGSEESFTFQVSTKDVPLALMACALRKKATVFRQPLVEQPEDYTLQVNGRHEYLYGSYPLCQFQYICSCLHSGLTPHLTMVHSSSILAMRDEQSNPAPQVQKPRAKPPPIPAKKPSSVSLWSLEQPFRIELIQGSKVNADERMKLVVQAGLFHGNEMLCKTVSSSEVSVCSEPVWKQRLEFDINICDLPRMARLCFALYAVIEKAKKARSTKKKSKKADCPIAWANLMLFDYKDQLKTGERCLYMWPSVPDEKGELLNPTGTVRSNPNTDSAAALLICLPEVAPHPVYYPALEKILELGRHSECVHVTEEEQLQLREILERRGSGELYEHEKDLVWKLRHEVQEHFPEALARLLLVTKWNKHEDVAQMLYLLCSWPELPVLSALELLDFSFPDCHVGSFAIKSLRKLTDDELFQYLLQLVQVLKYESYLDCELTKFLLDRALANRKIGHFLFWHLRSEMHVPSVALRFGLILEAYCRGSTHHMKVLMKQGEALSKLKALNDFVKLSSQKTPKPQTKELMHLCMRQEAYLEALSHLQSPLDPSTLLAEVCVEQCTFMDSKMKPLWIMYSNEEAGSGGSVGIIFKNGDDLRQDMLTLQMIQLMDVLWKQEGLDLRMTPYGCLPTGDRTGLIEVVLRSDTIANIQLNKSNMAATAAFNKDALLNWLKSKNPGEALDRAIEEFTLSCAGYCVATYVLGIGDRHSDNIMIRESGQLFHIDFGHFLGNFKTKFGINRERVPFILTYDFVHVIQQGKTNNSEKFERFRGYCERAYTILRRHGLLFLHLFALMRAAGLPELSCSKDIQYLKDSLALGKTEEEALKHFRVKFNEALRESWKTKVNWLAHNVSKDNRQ
Sequence of PI3kδ (P27986 whole entry partner, canonical isoform): as the sequence (P27986 whole entry partner) above
Sequence of PI3kγ (P48736 whole entry): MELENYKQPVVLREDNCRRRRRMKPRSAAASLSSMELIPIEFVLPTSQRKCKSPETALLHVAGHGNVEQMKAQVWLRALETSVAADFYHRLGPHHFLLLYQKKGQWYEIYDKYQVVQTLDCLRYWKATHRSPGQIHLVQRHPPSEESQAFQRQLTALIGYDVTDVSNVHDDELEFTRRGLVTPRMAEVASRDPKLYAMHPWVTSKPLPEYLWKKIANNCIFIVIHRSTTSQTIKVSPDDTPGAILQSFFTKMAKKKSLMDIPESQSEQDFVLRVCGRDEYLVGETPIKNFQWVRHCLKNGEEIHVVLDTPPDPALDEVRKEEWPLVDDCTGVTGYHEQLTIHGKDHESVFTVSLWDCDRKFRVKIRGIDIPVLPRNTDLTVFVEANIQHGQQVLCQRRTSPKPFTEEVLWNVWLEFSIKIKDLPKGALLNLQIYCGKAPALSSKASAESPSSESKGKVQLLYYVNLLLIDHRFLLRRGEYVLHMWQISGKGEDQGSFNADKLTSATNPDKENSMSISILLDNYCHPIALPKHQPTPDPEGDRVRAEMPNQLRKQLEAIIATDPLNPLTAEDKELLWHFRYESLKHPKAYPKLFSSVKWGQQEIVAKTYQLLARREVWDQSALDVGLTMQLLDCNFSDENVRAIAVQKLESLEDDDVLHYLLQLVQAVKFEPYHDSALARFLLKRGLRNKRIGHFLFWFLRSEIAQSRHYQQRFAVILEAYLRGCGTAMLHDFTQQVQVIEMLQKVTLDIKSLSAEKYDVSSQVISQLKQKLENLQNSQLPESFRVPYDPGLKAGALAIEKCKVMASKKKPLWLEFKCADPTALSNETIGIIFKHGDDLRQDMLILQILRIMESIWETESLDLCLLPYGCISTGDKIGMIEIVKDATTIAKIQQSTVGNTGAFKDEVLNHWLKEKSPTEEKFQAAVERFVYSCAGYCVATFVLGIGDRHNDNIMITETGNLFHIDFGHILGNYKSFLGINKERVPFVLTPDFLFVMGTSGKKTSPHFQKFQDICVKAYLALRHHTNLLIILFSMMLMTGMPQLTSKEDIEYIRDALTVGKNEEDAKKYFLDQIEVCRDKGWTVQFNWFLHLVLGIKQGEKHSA
Sequence of PI3kβ (P42338 whole entry): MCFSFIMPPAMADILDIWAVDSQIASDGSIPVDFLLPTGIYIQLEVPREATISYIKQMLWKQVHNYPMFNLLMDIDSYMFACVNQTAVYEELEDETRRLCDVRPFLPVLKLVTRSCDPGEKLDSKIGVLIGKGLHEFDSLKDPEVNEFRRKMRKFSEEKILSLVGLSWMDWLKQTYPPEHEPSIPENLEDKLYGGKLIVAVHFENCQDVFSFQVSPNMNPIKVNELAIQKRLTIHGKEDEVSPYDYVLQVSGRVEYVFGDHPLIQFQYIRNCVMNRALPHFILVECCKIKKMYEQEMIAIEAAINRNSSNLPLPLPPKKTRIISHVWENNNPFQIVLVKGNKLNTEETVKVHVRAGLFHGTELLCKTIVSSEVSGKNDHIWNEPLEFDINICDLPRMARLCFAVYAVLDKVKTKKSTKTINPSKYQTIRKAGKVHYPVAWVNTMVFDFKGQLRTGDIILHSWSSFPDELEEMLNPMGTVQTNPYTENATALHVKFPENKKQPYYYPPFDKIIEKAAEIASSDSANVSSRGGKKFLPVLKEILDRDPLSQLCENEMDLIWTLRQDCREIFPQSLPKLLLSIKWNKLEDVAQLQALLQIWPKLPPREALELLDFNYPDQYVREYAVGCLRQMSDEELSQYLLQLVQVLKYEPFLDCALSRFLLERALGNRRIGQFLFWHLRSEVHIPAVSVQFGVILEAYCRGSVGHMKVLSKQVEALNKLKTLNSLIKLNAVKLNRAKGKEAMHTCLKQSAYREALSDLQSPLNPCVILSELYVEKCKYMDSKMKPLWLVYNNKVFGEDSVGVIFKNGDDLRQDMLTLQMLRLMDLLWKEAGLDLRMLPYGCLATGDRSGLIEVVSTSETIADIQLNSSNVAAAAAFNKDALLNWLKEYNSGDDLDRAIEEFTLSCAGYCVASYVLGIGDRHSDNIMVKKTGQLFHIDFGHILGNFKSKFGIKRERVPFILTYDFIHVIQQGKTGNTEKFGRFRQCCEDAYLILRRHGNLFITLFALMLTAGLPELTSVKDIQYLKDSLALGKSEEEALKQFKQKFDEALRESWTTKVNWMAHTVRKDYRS
Sequence of PI3kβ (P27986 whole entry partner): as the sequence (P27986 whole entry partner) above

Compound `CC(c1oc2cccc(F)c2c(=O)c1-c1cccc(F)c1)n1cnc2c(N(C)C)ncnc21` (single isomer, unassigned) [Example 130] came in with a melting point of 198 to 200 °C. Also, the inhibition at 0.1 µM in data set [1] was 25 to 50%. This compound also showed an inhibition at 0.1 µM in data set [2] of 25 to 50%. Moreover, the inhibition at 1 µM in data set [3] fell in the range of 25 to 50%.
As for `CC(Nc1ncnc2[nH]cnc12)c1oc2cccc(F)c2c(=O)c1-c1cccc(F)c1` (stereo not drawn) [Example 69, 2-(1-(9H-purin-6-ylamino)ethyl)-5-fluoro-3-(3-fluorophenyl)-4H-chromen-4-one], the melting point lay in the range of 247 to 249 °C. The “% inhibition (PI3kδ) 100 nM” value in data set [1] is “B (B=>50 to 75%)”. In addition, the “% inhibition (PI3kγ) 100 nM” value in data set [2] (0.1 µM) is “A (A=>75 to 100%)”. In data set [3], the “% inhibition (PI3kβ) 1 uM” value was “C (C=>25 to 50%)”.
`CC(C)Oc1ccc(-c2nn(C(C)c3oc4cccc(F)c4c(=O)c3-c3cccc(F)c3)c3ncnc(N(C)C)c23)cc1F` (stereo not drawn) [Example 83, 2-(1-(4-(dimethylamino)-3-(3-fluoro-4-isopropoxyphenyl)-1H-pyrazolo[3,4-d]pyrimidin-1-yl)ethyl)-5-fluoro-3-(3-fluorophenyl)-4H-chromen-4-one] returned a melting point of 122 to 124 °C. In data set [1], this compound returned an IC50 of no more than 50 nM and an inhibition at 0.1 µM of 75 to 100%. In data set [2], the half-inhibitory concentration (IC50) is no more than 50 nM and the inhibition at 0.1 µM is 75 to 100%.
Compound `C[C@H](Nc1nc(F)nc2[nH]cnc12)c1oc2cccc(F)c2c(=O)c1-c1cccc(F)c1` (racemic) [Example 136, (S)/(R)-5-fluoro-2-(1-(2-fluoro-9H-purin-6-ylamino)ethyl)-3-(3-fluorophenyl)-4H-chromen-4-one] showed a melting point of 183 to 186 °C. In data set [1], this compound had an inhibition at 0.1 µM of 25 to 50%. Moreover, the inhibition at 0.1 µM in data set [2] is 25 to 50%.
As for `COc1c(C)cc(-c2nn(C(C)c3oc4cccc(F)c4c(=O)c3-c3cccc(F)c3)c3ncnc(N)c23)cc1C` (stereo not drawn) [Example 71, 2-(1-(4-amino-3-(4-methoxy-3,5-dimethylphenyl)-1H-pyrazolo[3,4-d]pyrimidin-1-yl)ethyl)-5-fluoro-3-(3-fluorophenyl)-4H-chromen-4-one], the melting point was in the range of 232 to 235 °C. This compound displayed an inhibition at 0.1 µM in data set [1] of 0 to 25%. The same compound yielded an inhibition at 0.1 µM in data set [2] of 25 to 50%.
As for `CC(c1oc2cccc(F)c2c(=O)c1-c1cccc(F)c1)n1nc(-c2ccc(CNS(C)(=O)=O)cc2)c2c(N)ncnc21` (stereo not drawn) [Example 55, N-(4-(4-amino-1-(1-(5-fluoro-3-(3-fluorophenyl)-4-oxo-4H-chromen-2-yl)ethyl)-1H-pyrazolo[3,4-d]pyrimidin-3-yl)benzyl)methanesulfonamide], the melting point fell in the range of 252 to 255 °C. In data set [1], the inhibition at 0.3 µM was 25 to 50%. The compound further yielded an inhibition at 0.3 µM in data set [2] of 50 to 75%.
Compound `COc1nc(N[C@@H](C)c2oc3cccc(F)c3c(=O)c2-c2cccc(F)c2)c2nc[nH]c2n1` (single isomer, unassigned) [Example 134] returned a melting point of 186 to 189 °C. In data set [1], this compound registered an inhibition at 0.1 µM of 25 to 50%. The same compound displayed an inhibition at 0.1 µM in data set [2] of 0 to 25%.
Regarding `CC(c1oc2cccc(F)c2c(=O)c1-c1cccc(F)c1)n1nc(-c2ccc(OC(F)(F)F)c(F)c2)c2c(N)ncnc21` (stereo not drawn) [Example 45, 2-(1-(4-amino-3-(3-fluoro-4-(trifluoromethoxy)phenyl)-1H-pyrazolo[3,4-d]pyrimidin-1-yl)ethyl)-5-fluoro-3-(3-fluorophenyl)-4H-chromen-4-one], the melting point lay within 247 to 249 °C. In data set [1], this compound yielded an inhibition at 0.3 µM of 50 to 75%. Besides, the inhibition at 0.3 µM in data set [2] is 25 to 50%.
In turn, `CC(c1oc2cccc(F)c2c(=O)c1-c1cn[nH]c1)n1nc(-c2ccc(OC(F)F)c(F)c2)c2c(N)ncnc21` (stereo not drawn) [Example 91, 2-(1-(4-amino-3-(4-(difluoromethoxy)-3-fluorophenyl)-1H-pyrazolo[3,4-d]pyrimidin-1-yl)ethyl)-5-fluoro-3-(1H-pyrazol-4-yl)-4H-chromen-4-one] had a melting point of 135 to 138 °C. In addition, the inhibition at 0.1 µM in data set [1] was 25 to 50%. Also, the inhibition at 0.1 µM in data set [2] was 25 to 50%.
`CC(c1oc2cccc(F)c2c(=O)c1-c1cccc(F)c1)n1nc(-c2ccc3nccn3c2)c2c(N)ncnc21` (stereo not drawn) [Example 73, 2-(1-(4-amino-3-(imidazo[1,2-a]pyridin-6-yl)-1H-pyrazolo[3,4-d]pyrimidin-1-yl)ethyl)-5-fluoro-3-(3-fluorophenyl)-4H-chromen-4-one] gave a melting point of 317 to 320 °C. In data set [1], this compound had an inhibition at 0.1 µM of 25 to 50%. The inhibition at 0.1 µM in data set [2] was in the range of 25 to 50%.
As for `COc1nc(N[C@H](C)c2oc3cccc(F)c3c(=O)c2-c2cccc(F)c2)c2nc[nH]c2n1` (single isomer, unassigned) [Example 135], the melting point lay within 219 to 222 °C. This compound yielded an inhibition at 0.1 µM in data set [1] of 25 to 50%. The inhibition at 0.1 µM in data set [2] was in the range of 25 to 50%.
In turn, `CC(C)Oc1ccc(-c2nn(C(C)c3oc4cccc(N5CCOCC5)c4c(=O)c3-c3cccc(F)c3)c3ncnc(N)c23)cc1F` (stereo not drawn) [Example 120, 2-(1-(4-amino-3-(3-fluoro-4-isopropoxyphenyl)-1H-pyrazolo[3,4-d]pyrimidin-1-yl)ethyl)-3-(3-fluorophenyl)-5-morpholino-4H-chromen-4-one] registered a melting point of 227 to 229 °C. In data set [1], this compound came in with an inhibition at 0.1 µM of 0 to 25%. Besides, the inhibition at 0.1 µM in data set [2] is 0 to 25%.
`COCc1ccc(-c2nn(C(C)c3oc4cccc(F)c4c(=O)c3-c3cccc(F)c3)c3ncnc(N)c23)cc1` (stereo not drawn) [Example 72, 2-(1-(4-amino-3-(4-(methoxymethyl)phenyl)-1H-pyrazolo[3,4-d]pyrimidin-1-yl)ethyl)-5-fluoro-3-(3-fluorophenyl)-4H-chromen-4-one]: the melting point fell in the range of 204 to 207 °C. The same compound showed an inhibition at 0.1 µM in data set [1] of 0 to 25%. This compound also yielded an inhibition at 0.1 µM in data set [2] of 25 to 50%.
In the case of `CC(c1oc2cccc(F)c2c(=O)c1-c1cccc(F)c1)n1nc(-c2ccc(S(=O)(=O)NC3CC3)cc2)c2c(N)ncnc21` (stereo not drawn) [Example 57, 4-(4-amino-1-(1-(5-fluoro-3-(3-fluorophenyl)-4-oxo-4H-chromen-2-yl)ethyl)-1H-pyrazolo[3,4-d]pyrimidin-3-yl)-N-cyclopropylbenzenesulfonamide], the melting point lay in the range of 225 to 228 °C. In data set [1], the inhibition at 0.3 µM fell in the range of 0 to 25%. In data set [2], this compound yielded an inhibition at 0.3 µM of 50 to 75%.
Consider `CC(c1oc2cccc(F)c2c(=O)c1-c1cccc(F)c1)n1cnc2c(N3CCN(C)CC3)ncnc21` (stereo not drawn) [Example 125, 5-fluoro-3-(3-fluorophenyl)-2-(1-(6-(4-methylpiperazin-1-yl)-9H-purin-9-yl)ethyl)-4H-chromen-4-one], for which the melting point lay in the range of 199 to 201 °C. In data set [4], this compound showed an inhibition at 1 µM of 0 to 25%. Further, the inhibition at 0.1 µM in data set [1] was in the range of 25 to 50%.
In turn, `Cc1nc(C)c(-c2nn(C(C)c3oc4cccc(F)c4c(=O)c3-c3cccc(F)c3)c3ncnc(N)c23)s1` (stereo not drawn) [Example 75, 2-(1-(4-amino-3-(2,4-dimethylthiazol-5-yl)-1H-pyrazolo[3,4-d]pyrimidin-1-yl)ethyl)-5-fluoro-3-(3-fluorophenyl)-4H-chromen-4-one] gave a melting point of 252 to 255 °C. For the same compound, the inhibition at 0.1 µM in data set [1] was 25 to 50%. Moreover, the inhibition at 0.1 µM in data set [2] was in the range of 0 to 25%.
Compound `CC(c1oc2cccc(F)c2c(=O)c1-c1cccc(F)c1)n1nc(N2CCCC2)c2c(N)ncnc21` (stereo not drawn) [Example 47, 2-(1-(4-amino-3-(pyrrolidin-1-yl)-1H-pyrazolo[3,4-d]pyrimidin-1-yl)ethyl)-5-fluoro-3-(3-fluorophenyl)-4H-chromen-4-one] gave a melting point of 203 to 205 °C. Further, the inhibition at 0.3 µM in data set [1] fell in the range of 0 to 25%. Besides, the inhibition at 0.3 µM in data set [2] lay in the range of 0 to 25%.
Regarding `CNc1ncnc2c1c(-c1ccc(OC(C)C)c(F)c1)nn2C(C)c1oc2cccc(F)c2c(=O)c1-c1cccc(F)c1` (stereo not drawn) [Example 84, 5-fluoro-2-(1-(3-(3-fluoro-4-isopropoxyphenyl)-4-(methylamino)-1H-pyrazolo[3,4-d]pyrimidin-1-yl)ethyl)-3-(3-fluorophenyl)-4H-chromen-4-one], the melting point fell in the range of 193 to 196 °C. Moreover, in data set [1], the IC50 is no more than 50 nM and the “% inhibition (PI3kδ) 100 nM” value is “B (B=>50 to 75%)”. Further, in data set [2], the IC50 is greater than 500 nM and the “% inhibition (PI3kγ) 100 nM” value is “C (C=>25 to 50%)”.
`CC(c1oc2cccc(F)c2c(=O)c1-c1cccc(F)c1)n1nc(-c2ccc(C3=NCCCO3)cc2)c2c(N)ncnc21` (stereo not drawn) [Example 51, 2-(1-(4-amino-3-(4-(5,6-dihydro-4H-1,3-oxazin-2-yl)phenyl)-1H-pyrazolo[3,4-d]pyrimidin-1-yl)ethyl)-5-fluoro-3-(3-fluorophenyl)-4H-chromen-4-one] yielded a melting point of 228 to 230 °C. In data set [1], this compound registered an inhibition at 0.3 µM of 25 to 50%. The compound further had an inhibition at 0.3 µM in data set [2] of 50 to 75%.
As to `COC(=O)c1ccc(-c2nn(C(C)c3oc4cccc(F)c4c(=O)c3-c3cccc(F)c3)c3ncnc(N)c23)c(F)c1` (stereo not drawn) [Example 64, methyl 4-(4-amino-1-(1-(5-fluoro-3-(3-fluorophenyl)-4-oxo-4H-chromen-2-yl)ethyl)-1H-pyrazolo[3,4-d]pyrimidin-3-yl)-3-fluorobenzoate], the melting point was in the range of 258 to 260 °C. The same compound yielded an inhibition at 0.1 µM in data set [1] of 50 to 75%. In data set [2], this compound registered an inhibition at 0.1 µM of 25 to 50%. The compound further came in with an inhibition at 1 µM in data set [3] of 25 to 50%.
For the compound `CC(C)C(=O)Nc1ccc(-c2nn(C(C)c3oc4cccc(F)c4c(=O)c3-c3cccc(F)c3)c3ncnc(N)c23)cc1` (stereo not drawn) [Example 48, N-(4-(4-amino-1-(1-(5-fluoro-3-(3-fluorophenyl)-4-oxo-4H-chromen-2-yl)ethyl)-1H-pyrazolo[3,4-d]pyrimidin-3-yl)phenyl)isobutyramide], the melting point fell in the range of 154 to 157 °C. Moreover, the inhibition at 0.3 µM in data set [1] was 50 to 75%. Also, in data set [2], the IC50 was no more than 50 nM and the inhibition at 0.3 µM lay within 75 to 100%. In data set [3], this compound returned an inhibition at 1 µM of 25 to 50%.
